Data on five molecules can be found in patent US11780814B2, “Small molecules for treating cancer, inhibiting chemokine activity and/or inducing cell death” (AlonBio Ltd., priority 2019, dated 2023).

The subject of one assay is HEY-T30 cells. In words: Cell cycle analysis by 7-AAD, Taxol-resistant ovarian cancer cells. In kind it is cell-based. To be noted: 24 hours. As for the experimental part: Cells (1×10^6 cells/ml) were cultured in 12-well plates in 10% FCS. After 24 hours the medium was replaced by 1% FCS and BKT300-N1 or Taxol (250-3.75 nM) were added.
24 hours incubation, cells were harvested and washed with PBS. The pellet was fixed by adding 200 μl Fix/Perm buffer and vortexed. The fixed cells were incubated for 20 minutes at 4° C. and then 1 ml of Perm/Wash buffer was added. Following centrifugation, supernatant was removed and cells were resuspended in 100 μl Perm/Wash plus 4 μl of 7-AAD and vortexed. The cells were then incubated in the dark for 20 minutes at 4° C. and thereafter 300 μl of PBS was added. Flow cytometry analysis was performed by collecting 20,000 events per sample. Analysis was done according to the distribution of cells in three major phases of the cycle: G0/G1 (blue), S (purple), G2/M (green), and apoptotic cells (red), as shown in FIGS. 15-18C.
All results are expressed as average ±SD. Statistical differences were determined by an analysis of two-tailed Student's t test. Values of p<0.05 were considered to be statistically significant.
Cells were incubated in different doses of Taxol (30, 15, 7.5, 3.75 nM) for 24 hours and were thereafter analyzed as described hereinabove.
Next, the effect of BKT300-N1 on the taxol resistance cells was tested. Both ovarian cancer cell lines were incubated with BKT300-N1 (250, 125, 62.5, 31.25, 15.6 nM). For comparison, the effect of the same amounts of Taxol was also tested.

A further assay deals with OVCAR8 cells. In words: Cell cycle analysis by 7-AAD, Taxol-sensitive ovarian cancer cells. The following applies: lowest taxol concentration of 3.75 nM; 24 hours; FIG. 16. The class given is cell-based.
For the next assay, the system named is cancer cells. To be noted: described in WO 2017/103931; cited from earlier work.
The test system of another assay is CXCR4. The following applies: animal studies, cited from earlier work.
The subject of assay [1] is U937 cells. Put plainly: Cell cycle analysis by 7-AAD staining. In kind it is cell-based, human. To be noted: 24 hours. As for the experimental part: (§1) To evaluate the effects of BKT300-N1 on cell cycle distribution 7-Aminoactinomycin D (7-AAD) protocol was used. Cells were seeded in 24 wells of microplates at a density of 1×10^6 Cells/well and exposed to different concentrations of the tested compound, BKT300-N1 or BKT300-3-C5, for 24 or 48 hours at 37° C. in a CO2 incubator. After incubation time, cells were collected and washed with cold PBS. Cells were fixed for 20 minutes at 4° C. and processed according to the 7-AAD labeling protocol. The intensity of dye in staining cells was measured by flow cytometry. Cell cycle analysis calculated G0/G1, G2/M and sub-G0 phases from a 7-AAD area histogram.
Using the above protocol, U937 cells were treated with different concentrations of BKT300-N1 or BKT300-3-C5 (0.05, 0.1, 0.5 and 1 μM) for 24 hours and then cell cycle phases were analyzed by flow cytometry using 7-AAD.

Another assay addresses SDF-1 (Homo sapiens, UniProt P48061). In words: Transwell migration assay of Jurkat cells towards SDF-1. To be noted: 0.5 μM, 1 μM, or 5 μM; 100 ng/ml SDF-1; 3 hours; FIG. 2. The class given is cell-based. As for the experimental part: 600 μl of RPMI medium containing 1% fetal calf serum (FCS) was added to the lower chambers of Transwell® transmigration plates, supplemented with 100 ng/ml of SDF-1. BKT300-N1 was added to the lower chambers at the indicated concentration, except in control samples. The SDF-1 was incubated with BKT300-N1 for 30 minutes at room temperature before the initiation of the migration assay. Following 30 minutes of incubation 2×10^5 Jurkat cells were added to the upper chambers of the transmigration plates in a total volume of 100 μl. Cells which migrated within 3 hours to the bottom chamber of the Transwell® plates were counted using a FACScalibur™ flow cytometer.

In a further assay the test system is HCC SNU449 cells. Put plainly: Scratch assay (IncuCyte), cell invasion and migration. In kind it is cell-based, human. The method, then:
Scratch assay was performed to assess the effects of BKT300-N1 compared to that of BKT300-3-C5 on cell invasion and migration. This system measures scratch closure in real time and automatically calculates the relative wound density and wound width within the initially-vacant area at each time point. The relative wound density is the ratio of the occupied area to the total area of the initial scratched region.
Cells were plated on 96-well Image-lock plates (Essen Bioscience) and grown overnight to form a spatially uniform monolayer.
Scratches were made by using a 96-pin tool WoundMaker™ (Essen BioScience) to create uniform, reproducible scratches in all the wells of a 96-well plate. After creating the scratch, the medium was aspirated and the wells are washed twice with fresh medium to remove any cells from the scratched area. Following the washes, fresh medium containing different concentrations of the tested compound was added to the wells. Once the fresh medium is added, the plate was placed into the IncuCyte ZOOM™ apparatus and images of the collective cell spreading are recorded every 4 hours for a total duration of 60 hours.
Data processing and analysis were done using the IncuCyte S3 Live-cells Analysis System.
The scratch assay was performed using HCC SNU449 cells. The cells were scratched and incubated with 0.05, 0.1, 0.5, 1 and 10 μM of BKT300-N1 or BKT300-3-C5.

Assay [2] deals with U937 cells. Put plainly: Annexin-V/PI apoptosis assay by flow cytometry. The class given is cell-based, human. The following applies: 25-1000 nM, 24 hours, compared to BKT300-3-C5. As for the experimental part: Apoptosis was determined by flow cytometry analysis using Annexin-V kit. U937 cancer cells were incubated in RPMI cell medium with 1% fetal calf serum (FCS) at a concentration of 1×10^6 cells/well at a final volume of 1 ml in 24-well plate. The tested compound (BKT300-N1 or BKT300-3-C5) was added to the cells at the indicated concentrations. After 24 hours incubation, medium and cells were collected and centrifuged, then stained with Annexin-V and propidium iodide (PI) kit according to manufacturer's instructions. The numbers of viable cells (Annexin-V negative/PI negative); early apoptotic cells (Annexin-V positive/PI negative); late apoptosis cells (Annexin-V positive/PI positive) and necrotic cells (Annexin-V negative/PI positive) were then evaluated by flow cytometry (FACS).

Assay [3] concerns cleaved caspase-3 in U937 cells. Put plainly: Western blot for cleaved caspase-3. In kind it is cell-based, human. The following applies: 0.1, 0.5 and 1 μM; 24 hours; FIGS. 7A-7B. As for the experimental part: The role of caspase-3 (CASP3) in the BKT300-N1-induced apoptosis of AML cell lines U937 was tested. Cells were incubated with BKT300-N1 (0.1, 0.5 and 1 μM) for 24 hours, and were then tested for the presence of cleaved caspase 3 using mAb against human cleaved caspase 3 by Western blot assay.
Background: Immunoblotting shows a protein as a band on a membrane.

The test system of another assay is H69 cells. Put plainly: Cell cycle analysis by 7-AAD staining. The following applies: different concentrations; 48 hours; FIG. 9. In kind it is cell-based. The method, then:
as §1
Using the above protocol, H69 cells were treated with different concentrations of BKT300-N1 for 48 hours and then cell cycle phases were analyzed by flow cytometry using 7-AAD. Cells were gated according to the cells cycle phase: P1 for G0/G1 phase; P2-apoptotic cells in subG0 phase; and P3 for G2/M phase.

Assay [4] has as its system human ovarian (CTG-1086) cancer. In words: Patient derived xenograft (PDX) tumor growth, ovarian. In kind it is in vivo, mice. To be noted: SC every 12 hours, 5 mg or 10 mg daily dose; compared to vehicle control; FIG. 13A. The method, then:
(§2) In additional experiments, the in vivo efficacy of BKT300-N1, on the growth of subcutaneous, low passage Champions' TumourGraft® patient derived xenograft (PDX) models of human non-small-cell lung (CTG-0198), colorectal (CTG-0923) and ovarian (CTG-1086) cancer in female immunocompromised mice was tested.
(§3) Athymic Nude-Foxn1nu (Immunocompromised) female mice aged 6-8 weeks were implanted with 1-1.5 cm^3 harvested tumors unilaterally on the left flank. When the tumors reached an average volume of 200 cubic millimeters, control group was treated daily with a vehicle and treatment group was treated with either 2.5 mg per mice per injection (low dose) or 5 mg per mice per injection (hight dose) of BKT300-N1. The control group was subcutaneously (SC) injected with the vehicle (Cremophore EL and Ethanol 50%/50% volume/volume) diluted 1:6 with 0.9% Sodium Chloride.
(§4) For the low dose treatment group, a stock solution of 30 mg/mL BKN300-N1 was preapared in the vehicle and further diluted 1:6 with 0.9% Sodium Chloride, to a final concentration of 5 mg/mL. Animals received a 0.5 mL subcutaneously (SC) injection every 12 hours (for a 2.5 mg/injection=5 mg daily dose).
(§5) For the high dose treatment group, a stock solution of 30 mg/mL BKN300-N1 was preapared in the vehicle and further diluted 1:3 with 0.9% Sodium Chloride, to a final concentration of 10 mg/mL. […]
Background: A xenograft is tissue or cells of one species grown in another, often human tumour cells in immunodeficient mice.

Assay [5] relates to human non-small-cell lung (CTG-0198) cancer. Put plainly: Patient derived xenograft (PDX) tumor growth, lung. To be noted: SC every 12 hours, 5 mg or 10 mg daily dose; compared to vehicle control; FIG. 13B. The class given is in vivo, mice. The method, then: as §2, §3, §4, §5
Assay [6] concerns human colorectal (CTG-0923) cancer. Put plainly: Patient derived xenograft (PDX) tumor growth, colorectal. The class given is in vivo, mice. The following applies: SC every 12 hours, 5 mg or 10 mg daily dose; compared to vehicle control; FIG. 13C. As for the experimental part:
as §2, §3, §4, §5

Setting [7] is: all tested concentrations (0.05, 0.1, 0.5 and 1 μM), FIG. 8A.

SDF-1, sequence (P48061 22-93, species assumed): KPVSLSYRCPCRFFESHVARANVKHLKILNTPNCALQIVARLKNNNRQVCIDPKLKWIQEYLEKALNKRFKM
Protocol for OVCAR8 cells: Cells (1×10^6 cells/ml) were cultured in 12-well plates in 10% FCS. […] 24 hours incubation, cells were harvested and washed with PBS. The pellet was fixed by adding 200 μl Fix/Perm buffer and vortexed. The fixed cells were incubated for 20 minutes at 4° C. and then 1 ml of Perm/Wash buffer was added. Following centrifugation, supernatant was removed and cells were resuspended in 100 μl Perm/Wash plus 4 μl of 7-AAD and vortexed. The cells were then incubated in the dark for 20 minutes at 4° C. and thereafter 300 μl of PBS was added. Flow cytometry analysis was performed by collecting 20,000 events per sample. […] All results are expressed as average ±SD. Statistical differences were determined by an analysis of two-tailed Student's t test. Values of p<0.05 were considered to be statistically significant. Cells were incubated in different doses of Taxol (30, 15, 7.5, 3.75 nM) for 24 hours and were thereafter analyzed as described hereinabove.

`CC(=O)O[C@H]1C(=O)[C@@]2(C)[C@H]([C@H](OC(=O)c3ccccc3)[C@]3(O)C[C@H](OC(=O)[C@H](O)[C@@H](NC(=O)c4ccccc4)c4ccccc4)C(C)=C1C3(C)C)[C@]1(OC(C)=O)CO[C@@H]1C[C@@H]2O` [Taxol, reference compound]: the “effect on cell cycle” value in the assay on HEY-T30 cells (Taxol 30, 15, 7.5, 3.75 nM, FIG. 15) is listed as “no effect on cell cycle”; in the assay on OVCAR8 cells, “effect on cell cycle was already evident”. Further, the “effects on dead cells, G0/G1 phase and G2/M phase” value in the assay with HEY-T30 cells (any of the tested concentrations (250, 125, 62.5, 31.25, 15.6 nM), FIGS. 18A-18C) is on record as “no significant effects”.

For the molecule `CCCCCc1cc2cc(O)cc(Oc3c(O)cc(O)cc3CCCCC)c2c(=O)o1` [BKT300], in the assay on cancer cells, the cancer cell death entry is reported as “inducing cancer cell death” and the cancer cell migration result is reported as “inhibiting cancer cell migration”.

For the molecule `c1cc(CN2CCCNCCNCCCNCC2)ccc1CN1CCCNCCNCCCNCC1` [plerixafor], the “recurrence of glioblastoma associated with vasculogenesis” value in the assay with CXCR4 (Kioi et al. 2010) was “reduce recurrence of glioblastoma”. The metastasis entry in the assay on CXCR4 (Smith et al. 2004) is “reduce metastasis”. Moreover, in the assay on CXCR4 (Wilson et al. 2011), the opioid-induced hyperalgesia entry is listed as “counteract opioid-induced hyperalgesia”.

Turning to `CCCCCC1C(=O)Nc2c(Oc3ccc(OC)cc3OC)cc(OC)cc2C1=O` (stereo not shown) [BKT300-3-C5, reference compound], the cells death result with U937 cells [1] (concentration lower than 0.5 μM, FIG. 8B) was “did not induce cells death”.

Turning to `CCCCCc1c(O)c2cc(OC)cc(Oc3ccc(O)cc3OC)c2[nH]c1=O` [BKT300-N1, 4-hydroxy-8-(4-hydroxy-2-methoxyphenoxy)-6-methoxy-3-pentylquinolin-2(1H)-one], on SDF-1, the “migration of lymphocytic Jurkat cells towards SDF-1” value is “significantly inhibited”. Further, the wound width values entry in the assay with HCC SNU449 cells (0.05, 0.1, 0.5, 1 and 10 μM, over BKT300-3-C5, particularly at the lower concentrations, FIGS. 4A-4E) is reported as “improved effect”. In addition, in the assay with HCC SNU449 cells (at 24 hours, already at 0.1 μM, compared to BKT300-3-C5, FIG. 3), the relative wound area result was “improved effect”. Besides, the “viability of U937 cells as the number of Annexin-V−/PI− viable cells” value with U937 cells [2] (all tested concentrations, FIG. 6A) was “improved effect”. Also, in the assay with U937 cells [2] (FIGS. 6A-6B), the “reduction in the percentage of viable cells via apoptosis” value is on record as “substantially higher effect”. Also, the “presence of cleaved caspase-3 (mechanism of induced apoptosis)” value in assay [3] is “via caspase-3 activation”. In addition, in the assay on U937 cells [1] (setting [7]), the cell cycle arrest result is “resulted in cell cycle arrest” and the cells death result is reported as “induced cells death”. Besides, in the assay with H69 cells, the apoptotic cell death result was “induce apoptotic cell death” and the “cell cycle growth arrest” value is recorded as “arrest the growth at the G2M phase”. For the same molecule, in assay [4], the tumor growth result is “substantial reduction and even arrest in tumor growth”. For the same molecule, the tumor growth entry in [5] is “substantial reduction and even arrest in tumor growth”. Besides, the tumor growth result in assay [6] is “substantial reduction and even arrest in tumor growth”. In addition, the “level of dead cells” value in the assay on HEY-T30 cells (significant at a concentration of 62.5 nM, FIG. 18A) is “increasing the level of dead cells”. Besides, the “percentage of cells at G0/G1 phase” value in the assay on HEY-T30 cells (significant at concentration of 125 nM, FIG. 18B) is reported as “reducing the percentage of cells at G0/G1 phase”. The “level of cells in G2/M phase” value with HEY-T30 cells (significant at concentration of 125 nM, FIG. 18C) was “increasing the level of cells in G2/M phase”.
